Read-outs that look alike come from different tables or passages of the source.
Experiments:
[1] = test system: Spontaneously hypertensive male rats; experiment: Experiment 1-1 Hypotensive activity (oral, conscious spontaneously hypertensive rats); assay type: in vivo, rat; settings: 10 mg/kg oral; for Maximum hypotension: mean blood pressure
Description: Spontaneously hypertensive male rats (13-15 week age, one group: 3 rats) were used. […] The rats were fixed in a Howlman cage without fasting, and the femoral arterial pressure was measured by a direct method without anesthesia with a cannula which was previously inserted into the femoral artery of the animal, via a pressure transducer (MPU-0.5, manufactured by Nippon Koden K.K.). The test compounds were orally administered in the form of a suspension in 0.5% methyl cellulose solution in a dose of 10 mg/kg (in some compounds, 3 mg/kg). In the control group, only 0.5% methyl cellulose solution was administered likewise. The blood pressure was measured for 5 hours after the administration of test compounds.

isolated heart [2] = experiment: Experiment 2-1 Activity on isolated heart; design: species or system Japanese white rabbit; settings: Oryctolagus cuniculus, 3 μg/heart; for activation at 3 µg/heart: read-out: Increase of coronary perfusion; for inhibition at 3 µg/heart, 3 µg/heart: read-out: Inhibitory rate of systole; for inhibition at 3 µg/heart: read-out: Reducing rate of heart pulse
Description: Japanese white rabbit (weighing 2.2-2.5 kg) was anesthetized by introvenous injection of nembutal (20 mg/kg) and then sacrificed by bleeding from common carotid artery. […] After stabilizing the heart preparation for 90 minutes, the test compound was administered. There were measured the perfusion volume with a drop-counting meter (ET-600G type, manufactured by Nippon Koden K.K.) and the heart pulse and the contractility via a force-displacement transducer (FD pick up, SB-IT type, manufactured by Nippon Koden K.K.) (for measuring heart pulse, an instant pulse meter (AT-601G type, minufactured by Nippon Koden K.K.) being further used).

isolated aorta = experiment: Experiment 3 Relaxing activity on the isolated aorta (30 mM KCl contracted); design: species or system Japanese white rabbit; settings: for EC50: Oryctolagus cuniculus, 30 mM KCl contraction, maximum relaxation by papaverine = 100%, read-out: EC50 (concentration for 50% relaxation); for relaxing / vasodilating activity on isolated aorta (in words): Table 8, comparison with nifedipine and nicardipine hydrochloride, etc. where stated
Description: Japanese white rabbit (weighing 2.3-2.7 kg) was sacrificed by bleeding from common carotid artery. Immediately, the aorta was isolated and cut into a sprial strip. The strip preparation was vertically suspended under a resting tension of 2.0 g in a tissue bath containing 20 ml of modified Ringer solution while bubbling with a mixture of 95% O2 +5% CO2 by connecting one end of the strip to a lever of the above-mentioned FD pick up. The aortic strip was contracted with 30 mM KCl. When the contraction became constant, the test compound was accumulatively administered, and the relaxing effect was measured. After the final treatment, 10^-4T M papaverine was administered and the maximum relaxation obtained thereby was taken as 100%. In comparison with the maximum relaxation obtained by papaverine, the rate of relaxation by the test compounds was evaluated, and the concentration of the test compounds for obtaining 50% relaxation (EC50) was calculated.
The test compound was dissolved in ethanol, and the solution was diluted in 100 to 1×10^4 folds with a nutrient solution, and the diluted solution was administered.

isolated heart [3] = experiment: Experiment 2-2 Activity onto the isolated heart (with duration); design: species or system Japanese white rabbit; settings: for Coronary perfusion Duration: time until perfusion volume returned to initial level; for activation at 3 µg/heart / inhibition at 3 µg/heart / activation at 1 µg/heart / inhibition at 1 µg/heart: Oryctolagus cuniculus; for activation at 3 µg/heart / activation at 1 µg/heart: read-out: Coronary perfusion Increase
Description: Japanese white rabbit (weighing 2.2-2.5 kg) was anesthetized by introvenous injection of nembutal (20 mg/kg) and then sacrificed by bleeding from common carotid artery. […] There were measured the perfusion volume with a drop-counting meter (ET-600G type, manufactured by Nippon Koden K.K.) and the heart pulse and the contractility via a force-displacement transducer (FD pick up, SB-IT type, manufactured by Nippon Koden K.K.) (for measuring heart pulse, an instant pulse meter (AT-601G type, minufactured by Nippon Koden K.K.) being further used).
The test compounds were dissolved in ethanol, and the solution was diluted in 100-fold with purified water, and the diluted solution was administered in an amount of 0.1 ml/heart (i.e. 3 μg/heart).
The activity was measured in the same manner as described in Experiment 2-1 except that in some test compounds, the dose was in 1 μg/heart. Besides, the duration of the activity was evaluated by counting the time until the coronary perfusion volume became to the initial level before the administration of the test compound.

[4] = 3 μg/heart, read-out: Inhibitory rate of systole
[5] = 3 μg/heart, read-out: Reducing rate of heart pulse
[6] = 1 μg/heart, read-out: Inhibitory rate of systole
[7] = 1 μg/heart, read-out: Reducing rate of heart pulse

Row | Compound | EC50 (isolated aorta) [nM] | Coronary perfusion Duration (isolated heart [3]; 3 μg/heart) [min] | activation at 3 µg/heart (isolated heart [3]; 3 μg/heart) [%] | inhibition at 3 µg/heart (isolated heart [3]; [4]) [%] | inhibition at 3 µg/heart (isolated heart [3]; [5]) [%] | also measured
1 | CCOC(=O)C1=C(C)NC(C)=C(C(=O)N(C)C)C1c1cccc([N+](=O)[O-])c1 (centres unmarked) [E, reference compound] | > 1000 |  |  |  |  | Recovering time [1]: 1.0 h; Time for recovering 1/2 of max. hypotension [1]: 0.5 h; Time until reaching to max. hypotension [1]: 15 min; Maximum hypotension [1]: 5 mmHg; activation at 3 µg/heart (isolated heart [2]): 0%; inhibition at 3 µg/heart, 3 µg/heart (isolated heart [2]): 0%; inhibition at 3 µg/heart (isolated heart [2]): 1%
2 | CC1=C(C(=O)NC2CC2)C(c2ccccc2[N+](=O)[O-])C(C(=O)OCCC(C)C)=C(C)N1 (centres unmarked) [Example 94] |  | < 10 | 15 | 10 | 0 | 
3 | CCCOC(=O)C1=C(C)NC(C)=C(C(=O)NC(C)C)C1c1cccc([N+](=O)[O-])c1 (centres unmarked) [Example 62] | 150 |  |  |  |  | activation at 3 µg/heart (isolated heart [2]): 20%; inhibition at 3 µg/heart, 3 µg/heart (isolated heart [2]): 2%; inhibition at 3 µg/heart (isolated heart [2]): 6%
4 | CCCCCOC(=O)C1=C(C)NC(C)=C(C(=O)NCCC)C1c1ccccc1[N+](=O)[O-] (centres unmarked) [Example 39] | 40 |  |  |  |  | relaxing / vasodilating activity on isolated aorta (in words) (isolated aorta): the same or more potent activity
5 | COC(=O)C1=C(C)NC(C)=C(C(N)=O)C1c1ccccc1[N+](=O)[O-] (centres unmarked) [C, reference compound] | > 1000 |  |  |  |  | Recovering time [1]: 2.0 h; Time for recovering 1/2 of max. hypotension [1]: 1.5 h; Time until reaching to max. hypotension [1]: 15 min; Maximum hypotension [1]: 20 mmHg; activation at 3 µg/heart (isolated heart [2]): 16%; inhibition at 3 µg/heart, 3 µg/heart (isolated heart [2]): 17%; inhibition at 3 µg/heart (isolated heart [2]): 7%
6 | COC(=O)C1=C(C)NC(C)=C(C(=O)NC2CCCC2)C1c1ccccc1[N+](=O)[O-] (centres unmarked) [Example 84, methyl 2,6-dimethyl-3-cyclopentylaminocarbonyl-4-(o-nitrophenyl)-1,4-dihydropyridine-5-carboxylate] |  |  |  |  |  | Coronary perfusion Duration (isolated heart [3]; 1 μg/heart): 20 to 30 min; activation at 1 µg/heart (isolated heart [3]; 1 μg/heart): 30%; inhibition at 1 µg/heart (isolated heart [3]; [6]): 15%; inhibition at 1 µg/heart (isolated heart [3]; [7]): 20%
7 | CC1=C(C(N)=O)C(c2ccccc2[N+](=O)[O-])C(C(=O)OC(C)C)=C(C)N1 (centres unmarked) [Example 11] | 320 |  |  |  |  | 
8 | CCNC(=O)C1=C(C)NC(C)=C(C(=O)OC)C1c1ccccc1[N+](=O)[O-] (centres unmarked) [D, reference compound] |  |  |  |  |  | activation at 3 µg/heart (isolated heart [2]): 20%; inhibition at 3 µg/heart, 3 µg/heart (isolated heart [2]): 15%; inhibition at 3 µg/heart (isolated heart [2]): 5%
9 | CC1=C(C(=O)NC(C)C)C(c2ccccc2[N+](=O)[O-])C(C(=O)OCC(C)C)=C(C)N1 (centres unmarked) [Example 46] | 70 |  |  |  |  | Recovering time [1]: 1.5 h; Time for recovering 1/2 of max. hypotension [1]: 0.5 h; Time until reaching to max. hypotension [1]: 15 min; Maximum hypotension [1]: 10 mmHg; activation at 3 µg/heart (isolated heart [2]): 14%; inhibition at 3 µg/heart, 3 µg/heart (isolated heart [2]): 9%; inhibition at 3 µg/heart (isolated heart [2]): 3%; relaxing / vasodilating activity on isolated aorta (in words) (isolated aorta): the same or more potent activity
10 | CCCCCCCOC(=O)C1=C(C)NC(C)=C(C(=O)NC2CC2)C1c1ccccc1[N+](=O)[O-] (centres unmarked) [Example 81, n-heptyl 2,6-dimethyl-3-cyclopropylaminocarbonyl-4-(o-nitrophenyl)-1,4-dihydropyridine-5-carboxylate] |  | 10 to 15 | 15 | 15 | 0 | 
11 | CCCCCCOC(=O)C1=C(C)NC(C)=C(C(=O)NCCC)C1c1ccccc1[N+](=O)[O-] (centres unmarked) [Example 41] | 130 |  |  |  |  | 
12 | CCOC(=O)C1=C(C)NC(C)=C(C(N)=O)C1c1ccccc1[N+](=O)[O-] (centres unmarked) [Example 9] | 670 |  |  |  |  | 
13 | CC1=C(C(=O)NC2CC2)C(c2ccccc2[N+](=O)[O-])C(C(=O)OCC(C)C)=C(C)N1 (centres unmarked) [Example 92] |  | < 10 | 10 | 10 | 5 | 
14 | CCNC(=O)C1=C(C)NC(C)=C(C(=O)OCCC(C)C)C1c1ccccc1[N+](=O)[O-] (centres unmarked) [Example 33] | 31 |  |  |  |  | relaxing / vasodilating activity on isolated aorta (in words) (isolated aorta): the same or more potent activity
15 | CCCCNC(=O)C1=C(C)NC(C)=C(C(=O)OCCCC)C1c1cccc([N+](=O)[O-])c1 (centres unmarked) [Example 69] | 570 |  |  |  |  | 
16 | CCCCOC(=O)C1=C(C)NC(C)=C(C(=O)NC2CC2)C1c1ccccc1[N+](=O)[O-] (centres unmarked) [Example 91] |  | < 10 | 20 | 35 | 10 | 
17 | CCCCCOC(=O)C1=C(C)NC(C)=C(C(=O)NC(C)C)C1c1cccc([N+](=O)[O-])c1 (centres unmarked) [Example 66] | 70 |  |  |  |  | activation at 3 µg/heart (isolated heart [2]): 16%; inhibition at 3 µg/heart, 3 µg/heart (isolated heart [2]): 15%; inhibition at 3 µg/heart (isolated heart [2]): 13%; relaxing / vasodilating activity on isolated aorta (in words) (isolated aorta): the same or more potent activity

Row | Compound | EC50 (isolated aorta) [nM] | Coronary perfusion Duration (isolated heart [3]; 3 μg/heart) [min] | activation at 3 µg/heart (isolated heart [3]; 3 μg/heart) [%] | inhibition at 3 µg/heart (isolated heart [3]; [4]) [%] | inhibition at 3 µg/heart (isolated heart [3]; [5]) [%] | also measured
18 | CCCCCCCCOC(=O)C1=C(C)NC(C)=C(C(=O)NC2CCCC2)C1c1ccccc1[N+](=O)[O-] (centres unmarked) [Example 86, n-octyl 2,6-dimethyl-3-cyclopentylaminocarbonyl-4-(o-nitrophenyl)-1,4-dihydropyridine-5-carboxylate] |  |  |  |  |  | Coronary perfusion Duration (isolated heart [3]; 1 μg/heart): 60 min; activation at 1 µg/heart (isolated heart [3]; 1 μg/heart): 50%; inhibition at 1 µg/heart (isolated heart [3]; [6]): 15%; inhibition at 1 µg/heart (isolated heart [3]; [7]): 20%
19 | CCOC(=O)C1=C(C)NC(C)=C(C(=O)NC2CC2)C1c1ccccc1[N+](=O)[O-] (centres unmarked) [Example 88] |  | < 10 | 35 | 30 | 30 | 
20 | CCCCCOC(=O)C1=C(C)NC(C)=C(C(=O)NC2CC2)C1c1ccccc1[N+](=O)[O-] (centres unmarked) [Example 93] |  | 20 | 20 | 20 | 15 | 
21 | CCC(CC)OC(=O)C1=C(C)NC(C)=C(C(=O)NC(C)C)C1c1ccccc1[N+](=O)[O-] (centres unmarked) [Example 50] | 700 |  |  |  |  | 
22 | COC(=O)C1=C(C)NC(C)=C(C(=O)NC2CC2)C1c1ccccc1[N+](=O)[O-] (centres unmarked) [Example 80, methyl 2,6-dimethyl-3-cyclopropylaminocarbonyl-4-(o-nitrophenyl)-1,4-dihydropyridine-5-carboxylate] |  | < 10 | 25 | 15 | 5 | 
23 | CC1=C(C(=O)NC2CC2)C(c2ccccc2[N+](=O)[O-])C(C(=O)OC(C)C)=C(C)N1 (centres unmarked) [Example 90] |  | < 10 | 15 | 10 | 5 | 
24 | CC1=C(C(N)=O)C(c2ccccc2[N+](=O)[O-])C(C(=O)OC(C)C(C)C)=C(C)N1 (centres unmarked) [Example 18] | 710 |  |  |  |  | 
25 | CCCCCOC(=O)C1=C(C)NC(C)=C(C(N)=O)C1c1ccccc1[N+](=O)[O-] (centres unmarked) [Example 16] | 610 |  |  |  |  | 
26 | CCCOC(=O)C1=C(C)NC(C)=C(C(N)=O)C1c1ccccc1[N+](=O)[O-] (centres unmarked) [Example 10] | 400 |  |  |  |  | 
27 | CCCCCCOC(=O)C1=C(C)NC(C)=C(C(=O)NC2CC2)C1c1ccccc1[N+](=O)[O-] (centres unmarked) [Example 95] |  | 10 to 15 | 20 | 15 | 10 | 
28 | CCCCCCCOC(=O)C1=C(C)NC(C)=C(C(=O)NCCC)C1c1ccccc1[N+](=O)[O-] (centres unmarked) [Example 42] | 380 |  |  |  |  | 
29 | CCCNC(=O)C1=C(C)NC(C)=C(C(=O)OCCC(C)C)C1c1ccccc1[N+](=O)[O-] (centres unmarked) [Example 40] |  |  |  |  |  | activation at 3 µg/heart (isolated heart [2]): 25%; inhibition at 3 µg/heart, 3 µg/heart (isolated heart [2]): 14%; inhibition at 3 µg/heart (isolated heart [2]): 1%
30 | CCCCCCCCCOC(=O)C1=C(C)NC(C)=C(C(=O)NC2CCCC2)C1c1ccccc1[N+](=O)[O-] (centres unmarked) [Example 87, n-nonyl 2,6-dimethyl-3-cyclopentylaminocarbonyl-4-(o-nitrophenyl)-1,4-dihydropyridine-5-carboxylate] |  |  |  |  |  | Coronary perfusion Duration (isolated heart [3]; 1 μg/heart): 60 min; activation at 1 µg/heart (isolated heart [3]; 1 μg/heart): 40%; inhibition at 1 µg/heart (isolated heart [3]; [6]): 15%; inhibition at 1 µg/heart (isolated heart [3]; [7]): 5%
31 | CC1=C(C(=O)NC2CC2)C(c2ccccc2[N+](=O)[O-])C(C(=O)OCCCC(C)C)=C(C)N1 (centres unmarked) [Example 96] |  | < 10 | 20 | 10 | 0 | 
32 | CCCOC(=O)C1=C(C)NC(C)=C(C(=O)NC2CC2)C1c1ccccc1[N+](=O)[O-] (centres unmarked) [Example 89] |  | < 10 | 30 | 35 | 30 | 
33 | CC1=C(C(=O)NC(C)C)C(c2cccc([N+](=O)[O-])c2)C(C(=O)OC(C)C)=C(C)N1 (centres unmarked) [Example 63] |  |  |  |  |  | Recovering time [1]: 1.5 h; Time for recovering 1/2 of max. hypotension [1]: 1.0 h; Time until reaching to max. hypotension [1]: 15 min; Maximum hypotension [1]: 7 mmHg
